The test system of assay [1] is phosphorylation of EGFR (Tyr1068) in NCI-H1975 cell line that harbors the EGFR L858R T790M mutations. The assay can be described thus: NCI-H1975 pEGFR AlphaLISA assay. To be noted: 4-5 hours incubation, read-out: Ext pEGFR H1975. The class given is cell-based. The method, boiled down:
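NCI-H1975 cells (EGFR L858R/T790M) seeded overnight, then treated with compound for 4-5 h at 37 °C/5% CO2. After lysis, p-EGFR (Tyr1068) quantified by AlphaLISA SureFire Ultra with acceptor then donor beads; IC50 fitted from percent inhibition versus log concentration.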
On the technique in general: In Alpha technology, singlet oxygen from a donor bead excites a nearby acceptor bead.

The target in another assay is T1, EGFR (L858R T790M C797S) (Homo sapiens, UniProt P00533, C797S/L858R/T790M).
T1 construct: purchased SignalChem E10-122VG
The assay can be described thus: Biochemical EGFR inhibition assay (Caliper mobility shift), EGFR LRTMCS mutant. The note with it: inhibitory activity against EGFR LRTMCS mutant; apparent IC50; read-out: Ext Enz LRTMCS. The method, boiled down: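 Apparent IC50s were derived by plotting percent activity against the log of compound concentration. Activity was measured as phosphopeptide electrophoretically separated from substrate, after reactions at room temperature reached 10% to 20% phosphorylation and were halted with 35 mM EDTA.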

[2] abbreviates: Homo sapiens, NCI-H1975, inhibition of phosphorylation of mutant EGFR in NCI-H1975 cells.
[3] abbreviates: inhibition of phosphorylation of mutant EGFR in NCI-H1975 cells.

Structures are written as SMILES. Like-named read-outs stand apart in the source and are kept apart here. Bounds are passed on as bounds.

We go through 13 molecules from patent publication US12172983B2, “EGFR inhibitors” (Blueprint Medicines Corporation, priority 2019, dated 2024).

T1 sequence (P00533 25-1210 T790M/C797S/L858R): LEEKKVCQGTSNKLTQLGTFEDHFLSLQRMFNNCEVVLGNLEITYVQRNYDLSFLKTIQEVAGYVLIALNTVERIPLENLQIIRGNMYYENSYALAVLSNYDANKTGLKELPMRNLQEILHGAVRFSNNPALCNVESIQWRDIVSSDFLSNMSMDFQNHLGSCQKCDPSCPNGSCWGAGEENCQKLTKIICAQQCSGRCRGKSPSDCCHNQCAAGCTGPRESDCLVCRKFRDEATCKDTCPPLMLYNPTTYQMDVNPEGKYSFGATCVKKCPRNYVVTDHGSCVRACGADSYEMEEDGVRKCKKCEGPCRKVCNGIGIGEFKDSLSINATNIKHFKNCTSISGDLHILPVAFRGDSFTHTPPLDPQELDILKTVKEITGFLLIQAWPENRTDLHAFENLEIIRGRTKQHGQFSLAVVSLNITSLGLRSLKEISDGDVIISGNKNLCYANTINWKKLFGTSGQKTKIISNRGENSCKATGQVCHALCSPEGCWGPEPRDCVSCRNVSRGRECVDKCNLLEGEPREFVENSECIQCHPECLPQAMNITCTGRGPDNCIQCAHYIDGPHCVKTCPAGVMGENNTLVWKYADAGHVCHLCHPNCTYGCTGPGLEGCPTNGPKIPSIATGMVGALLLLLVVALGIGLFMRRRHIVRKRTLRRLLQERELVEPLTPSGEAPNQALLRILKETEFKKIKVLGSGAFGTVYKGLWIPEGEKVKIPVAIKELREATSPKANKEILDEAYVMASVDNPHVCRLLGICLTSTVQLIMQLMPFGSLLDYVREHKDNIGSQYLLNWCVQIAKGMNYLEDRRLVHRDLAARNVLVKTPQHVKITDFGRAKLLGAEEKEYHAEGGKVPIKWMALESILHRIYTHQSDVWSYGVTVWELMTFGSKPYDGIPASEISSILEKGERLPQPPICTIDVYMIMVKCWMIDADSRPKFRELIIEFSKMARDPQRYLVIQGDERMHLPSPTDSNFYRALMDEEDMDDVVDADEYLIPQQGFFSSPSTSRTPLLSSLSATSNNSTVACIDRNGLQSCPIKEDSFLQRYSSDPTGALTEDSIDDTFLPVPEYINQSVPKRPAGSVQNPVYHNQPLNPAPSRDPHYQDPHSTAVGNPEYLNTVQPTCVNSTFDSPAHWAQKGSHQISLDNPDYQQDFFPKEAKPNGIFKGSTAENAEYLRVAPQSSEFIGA

`CC(C)c1ccc(N2C[C@H](CS(C)(=O)=O)[C@H]2C)c2cnc(Nc3ccnc(N4CC[C@](C)(O)[C@H](O)C4)n3)cc12` (single isomer, unassigned) [Compound 100, (3R,4S)-1-[4-({8-[(2R,3S)-3-(methanesulfonylmethyl)-2-methylazetidin-1-yl]-5-(propan-2-yl)isoquinolin-3-yl}amino)pyrimidin-2-yl]-4-methylpiperidine-3,4-diol or (3S,4R)-1-[4-({8-[(2R,3S)-3-(methanesulfonylmethyl)-2-methylazetidin-1-yl]-5-(propan-2-yl)isoquinolin-3-yl}amino)pyrimidin-2-yl]-4-methylpiperidine-3,4-diol]: the IC50 is at most 10 nM in assay [1] (setting [2]) and at most 15 nM at EGFR (L858R T790M C797S).

With `CC(C)c1ccc(N2C[C@H](CS(C)(=O)=O)[C@H]2C)c2cnc(Nc3ccnc(N4CC[C@](C)(O)[C@H](O)C4)n3)cc12` (single isomer, unassigned) [Compound 101, (4R)-1-[4-({8-[(2R,3S)-3-(methanesulfonylmethyl)-2-methylazetidin-1-yl]-5-(propan-2-yl)isoquinolin-3-yl}amino)pyrimidin-2-yl]-4-methylpiperidine-3,4-diol or (3S,4R)-1-[4-({8-[(2R,3S)-3-(methanesulfonylmethyl)-2-methylazetidin-1-yl]-5-(propan-2-yl)isoquinolin-3-yl}amino)pyrimidin-2-yl]-4-methylpiperidine-3,4-diol], the IC50 was 10.1 to 20 nM in assay [1] (setting [3]) and at most 15 nM on EGFR (L858R T790M C797S).

In the case of `CC(C)c1ccc(N2C[C@H](CS(C)(=O)=O)[C@H]2C)c2cnc(Nc3ccnc(N4CC[C@@](C)(O)[C@H](O)C4)n3)cc12` (single isomer, unassigned) [Compound 102, (3R,4R)-1-[4-({8-[(2R,3S)-3-(methanesulfonylmethyl)-2-methylazetidin-1-yl]-5-(propan-2-yl)isoquinolin-3-yl}amino)pyrimidin-2-yl]-4-methylpiperidine-3,4-diol or (3S,4S)-1-[4-({8-[(2R,3S)-3-(methanesulfonylmethyl)-2-methylazetidin-1-yl]-5-(propan-2-yl)isoquinolin-3-yl}amino)pyrimidin-2-yl]-4-methylpiperidine-3,4-diol], the IC50 in assay [1] (setting [2]) was 20.1 to 30 nM; on EGFR (L858R T790M C797S) it was at most 15 nM.

With `CO[C@@H]1CCN(c2nccc(Nc3cc4c(C(C)C)ncc(N5C[C@H](CS(C)(=O)=O)[C@H]5C)c4cn3)n2)C[C@@H]1O` (single isomer, unassigned) [Compound 103, (3S,4R)-1-(4-(5-isopropyl-8-((2R,3S)-2-methyl-3-(methylsulfonylmethyl)azetidin-1-yl)-2,6-naphthyridin-3-ylamino)pyrimidin-2-yl)-4-methoxypiperidin-3-ol or (3R,4S)-1-(4-(5-isopropyl-8-((2R,3S)-2-methyl-3-(methylsulfonylmethyl)azetidin-1-yl)-2,6-naphthyridin-3-ylamino)pyrimidin-2-yl)-4-methoxypiperidin-3-ol], the IC50 was 10.1 to 20 nM in assay [1] (setting [2]) and at most 15 nM on EGFR (L858R T790M C797S).

As to `CO[C@H]1CCN(c2nccc(Nc3cc4c(C(C)C)ncc(N5C[C@H](CS(C)(=O)=O)[C@H]5C)c4cn3)n2)C[C@@H]1O` (single isomer, unassigned) [Compound 104, (3S,4S)-1-(4-(5-isopropyl-8-((2R,3S)-2-methyl-3-(methylsulfonylmethyl)azetidin-1-yl)-2,6-naphthyridin-3-ylamino)pyrimidin-2-yl)-4-methoxypiperidin-3-ol or (3R,4R)-1-(4-(5-isopropyl-8-((2R,3S)-2-methyl-3-(methylsulfonylmethyl)azetidin-1-yl)-2,6-naphthyridin-3-ylamino)pyrimidin-2-yl)-4-methoxypiperidin-3-ol], the IC50 in assay [1] (setting [2]) is 10.1 to 20 nM; at EGFR (L858R T790M C797S), at most 15 nM.

For the molecule `CO[C@@H]1CCN(c2nccc(Nc3cc4c(C(C)C)cnc(N5C[C@H](CS(C)(=O)=O)[C@H]5C)c4cn3)n2)C[C@@H]1O` (single isomer, unassigned) [Compound 105, (3S,4R)-1-[4-({8-[(2R,3S)-3-(methanesulfonylmethyl)-2-methylazetidin-1-yl]-5-(propan-2-yl)-2,7-naphthyridin-3-yl}amino)pyrimidin-2-yl]-4-methoxypiperidin-3-ol or (3R,4S)-1-[4-({8-[(2R,3S)-3-(methanesulfonylmethyl)-2-methylazetidin-1-yl]-5-(propan-2-yl)-2,7-naphthyridin-3-yl}amino)pyrimidin-2-yl]-4-methoxypiperidin-3-ol], the values for the IC50 (in assay [1] (setting [2]); at EGFR (L858R T790M C797S)) were at most 10 nM and at most 15 nM, respectively.

For `CO[C@H]1CCN(c2nccc(Nc3cc4c(C(C)C)cnc(N5C[C@H](CS(C)(=O)=O)[C@H]5C)c4cn3)n2)C[C@@H]1O` (single isomer, unassigned) [Compound 106, (3S,4S)-1-[4-({8-[(2R,3S)-3-(methanesulfonylmethyl)-2-methylazetidin-1-yl]-5-(propan-2-yl)-2,7-naphthyridin-3-yl}amino)pyrimidin-2-yl]-4-methoxypiperidin-3-ol or (3R,4R)-1-[4-({8-[(2R,3S)-3-(methanesulfonylmethyl)-2-methylazetidin-1-yl]-5-(propan-2-yl)-2,7-naphthyridin-3-yl}amino)pyrimidin-2-yl]-4-methoxypiperidin-3-ol], the IC50 was at most 10 nM in assay [1] (setting [2]) and at most 15 nM at EGFR (L858R T790M C797S).

`CO[C@H]1CCN(c2nccc(Nc3cc4c(C(C)C)cnc(N5CC(C[S@@](C)(=N)=O)[C@H]5C)c4cn3)n2)C[C@H]1F` (single isomer, unassigned) [Compound 107, (1S)-(((2R)-1-(6-((2-((3R,4S)-3-fluoro-4-methoxypiperidin-1-yl)pyrimidin-4-yl)amino)-4-isopropyl-2,7-naphthyridin-1-yl)-2-methylazetidin-3-yl)methyl)(imino)(methyl)-λ^6-sulfanone or (1R)-(((2R)-1-(6-((2-((3R,4S)-3-fluoro-4-methoxypiperidin-1-yl)pyrimidin-4-yl)amino)-4-isopropyl-2,7-naphthyridin-1-yl)-2-methylazetidin-3-yl)methyl)(imino)(methyl)-λ^6-sulfanone]: the IC50 in assay [1] (setting [3]) was 10.1 to 20 nM; at EGFR (L858R T790M C797S), at most 15 nM.

In the case of `CO[C@H]1CCN(c2nccc(Nc3cc4c(C(C)C)cnc(N5CC(C[S@@](C)(=N)=O)[C@H]5C)c4cn3)n2)C[C@H]1F` (single isomer, unassigned) [Compound 108, (1S)-(((2R)-1-(6-((2-((3R,4S)-3-fluoro-4-methoxypiperidin-1-yl)pyrimidin-4-yl)amino)-4-isopropyl-2,7-naphthyridin-1-yl)-2-methylazetidin-3-yl)methyl)(imino)(methyl)-λ^6-sulfanone or (1R)-(((2R)-1-(6-((2-((3R,4S)-3-fluoro-4-methoxypiperidin-1-yl)pyrimidin-4-yl)amino)-4-isopropyl-2,7-naphthyridin-1-yl)-2-methylazetidin-3-yl)methyl)(imino)(methyl)-λ^6-sulfanone], the IC50 in assay [1] (setting [3]) was at most 10 nM; at EGFR (L858R T790M C797S) it was at most 15 nM.

As to `CC(C)c1ccc(N2CC(CS(C)(=O)=O)C2)c2cnc(Nc3ccnc(N4C[C@H](F)[C@H](O)C(C)(C)C4)n3)cc12` (single isomer, unassigned) [Compound 109, (4S,5R)-5-fluoro-1-[4-({8-[3-(methanesulfonylmethyl)azetidin-1-yl]-5-(propan-2-yl)isoquinolin-3-yl}amino)pyrimidin-2-yl]-3,3-dimethylpiperidin-4-ol or (4R,5S)-5-fluoro-1-[4-({8-[3-(methanesulfonylmethyl)azetidin-1-yl]-5-(propan-2-yl)isoquinolin-3-yl}amino)pyrimidin-2-yl]-3,3-dimethylpiperidin-4-ol], the IC50 in assay [1] (setting [2]) was at most 10 nM; at EGFR (L858R T790M C797S), at most 15 nM.

Turning to `CCS(=O)(=O)CC1CN(c2ccc(C(C)C)c3cc(Nc4ccnc(N5CC[C@@H](O)[C@@](C)(F)C5)n4)ncc23)C1` (single isomer, unassigned) [Compound 110], the IC50 in assay [1] (setting [2]) was at most 10 nM; on EGFR (L858R T790M C797S), at most 15 nM.

On to `CC(C)c1ccc(N2CC(C)(CS(C)(=O)=O)C2)c2cnc(Nc3ccnc(N4CC[C@@H](O)[C@@](C)(F)C4)n3)cc12` (single isomer, unassigned) [Compound 112], for which the IC50 in assay [1] (setting [2]) is 10.1 to 20 nM; on EGFR (L858R T790M C797S), at most 15 nM.

With `CC(C)c1ccc(N2CC(CS(C)(=O)=O)C2)c2cnc(Nc3ccnc(N4CC[C@](C)(O)[C@](C)(F)C4)n3)cc12` (single isomer, unassigned) [Compound 113, (3R,4S)-3-fluoro-1-[4-({8-[3-(methanesulfonylmethyl)azetidin-1-yl]-5-(propan-2-yl)isoquinolin-3-yl}amino)pyrimidin-2-yl]-3,4-dimethylpiperidin-4-ol or (3S,4R)-3-fluoro-1-[4-({8-[3-(methanesulfonylmethyl)azetidin-1-yl]-5-(propan-2-yl)isoquinolin-3-yl}amino)pyrimidin-2-yl]-3,4-dimethylpiperidin-4-ol], the IC50 in assay [1] (setting [2]) is 10.1 to 20 nM; on EGFR (L858R T790M C797S), at most 15 nM.
